The text below walks through data of patent publication US6395762B1, “Phenyl amino squarate and thiadiazole dioxide beta-3 adrenergic receptor agonists” (American Home Products Corporation, priority 2000, dated 2002).

The structures appear in SMILES notation. Read-outs that look alike come from different tables or passages of the source.

For one series, the target named is T1, human β3-AR (Homo sapiens, UniProt P13945).
T1 construct: Full-length β3-AR clones (402 amino acids) containing the last 6 amino acids of hβ3-AR; expressed in transfected cells; host or cells: CHO (Chinese hamster ovary) cells
T1 sequence (P13945 whole entry): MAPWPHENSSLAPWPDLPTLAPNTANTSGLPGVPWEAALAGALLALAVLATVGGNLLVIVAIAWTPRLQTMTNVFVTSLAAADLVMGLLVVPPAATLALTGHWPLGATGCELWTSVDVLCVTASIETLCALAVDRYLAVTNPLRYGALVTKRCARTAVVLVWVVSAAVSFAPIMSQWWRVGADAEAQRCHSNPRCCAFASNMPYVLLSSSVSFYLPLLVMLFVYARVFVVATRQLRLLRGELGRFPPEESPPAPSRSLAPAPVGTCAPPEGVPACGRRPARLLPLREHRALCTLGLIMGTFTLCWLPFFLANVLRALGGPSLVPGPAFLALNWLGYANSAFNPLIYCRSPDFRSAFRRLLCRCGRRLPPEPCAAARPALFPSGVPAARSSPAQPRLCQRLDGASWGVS
Kind of series: cAMP accumulation (SPA) in CHO cells transfected with human β3-AR. Type of series: cell-based. The settings on record: for IA(β3): maximal response of compound relative to maximal response of isoproterenol at 10^−5 M. As to the method:
The ability of the compounds of this invention to treat or inhibit disorders related to insulin resistance or hyperglycemia was confirmed with representative compounds of this invention in the following standard pharmacological test procedures, which measured the binding selectivity of the β1-, β2-, and β3-AR. Binding to the receptors was measured in Chinese Hamster ovary (CHO) cells that were transfected with β1-, β2-, and β3-AR's. The following briefly summarizes the procedures used and results obtained.
Cloning of Human β3-AR Genomic DNA: cDNA was constructed by ligating four polymerase chain reaction (PCR) products using the following primers: an ATG-Narl fragment, sense primer 5′-[…]3′ and anti-sense primer 5′[…]3′; a Narl-Accl fragment, 5′[…]3′ as sense and 5′[…]3′ as anti-sense primer; an Accli—Styl fragment, sense primer 5′[…]3′ and anti-sense primer 5′[…]3′ and a Styl-TAG fragment, with sense primer 5′ […]3′ and anti-sense primer 5′ […]3′ . The corresponding primer sequences are described in Mantzoros, C. S., et.al., Diabetes, 1996, 45, 909-914. The four fragments are ligated into a pUC 18 plasmid (Gibco-BRL) and sequenced. Full-length β3-AR clones (402 amino acids) containing the last 6 amino acids of hβ3-AR are prepared with the β3-βARpcDNA3 from ATTC.
Binding Procedure: Clones expressing receptor levels of 70 to 110 fmoles/mg protein were used in the test procedures. CHO cells were grown in 24-well tissue culture plates in Dulbecco's Modified Eagle Media with 10% fetal bovine serum, MEM non-essential amino acids, Penicillin—Streptomycin and Geneticin. On the day of test procedure, growth medium was replaced with preincubation media (Dulbecco's Modified Eagle Media) and incubated for 30 minutes at 37° C. Pre-incubation medium was replaced with 0.2 ml treatment medium containing DMEM media containing 250 μM IBMX (isobutyl-1-methylxantine) plus 1 mM ascorbic acid with test compound dissolved in DMSO. Test compounds were assayed over a concentration range of 10^−9 M to 10^−5 M for β3-AR transfected cells and 10^−8 to 10^−4 M for β1-AR and β2-AR transfected cells. Isoproterenol (10^−5 M) was used as an internal standard for comparison of activity. Cells were incubated at 37° C. on a rocker for 30 min with the β3-AR transfected cells and 15 min with β1-AR and β2-AR transfected cells. Incubation was stopped by the addition of 0.2N HCl and the acid was neutralized with 2.5N NaOH. The plates, containing the cells and neutralized media, were stored at −20° C. until ready to test for cAMP using the SPA test kit (Amersham).
Data Analysis and Results: Data collected from the SPA test procedure were analyzed as percent of the maximal isoproterenol response at 10^−5 M. Activity curves were plotted using the SAS statistical and graphics software.

The mark [1] stands for this setting: CHO cells transfected with human β3-AR, cAMP by SPA, 30 min at 37° C., 10^−9 M to 10^−5 M, read-out: EC50(β3).
Setting [2] is: CHO cells transfected with human β3-AR.

On to `CCCCCCCCNC1=NS(=O)(=O)N=C1Nc1ccc(CCNC[C@H](O)COc2ccc(O)cc2)cc1` [Compound 5, 4-((2S)-2-Hydroxy-3-{2-[4-(4-octylamino-1,1-dioxo-1H-1.lambda(6).-[1,2,5]thiadiazol-3-ylamino)-phenyl]-ethylamino}-propoxy)-phenol], for which the melting point is 98 °C (dec.). Besides, the half-maximal effective concentration (EC50) on human β3-AR (setting [1]) was 18 nM. The “IA(β3)” value at human β3-AR (setting [2]) came out at 0.75.

On to `CCCCNc1c(Nc2ccc(CC(C)NC[C@H](O)c3cccc(Cl)c3)cc2)c(=O)c1=O` (stereo partly drawn) [Compound 1, 3-Butylamino-4-(4-{2-[(2R)-2-(3-chloro-phenyl)-2-hydroxy-ethylamino]-propyl}-phenylamino)-cyclobut-3-ene-1,2-dione], for which the melting point was 176 to 179 °C. The compound further returned a half-maximal effective concentration (EC50) at human β3-AR of 115 nM. On human β3-AR (setting [2]), the “IA(β3)” value turned out to be 0.16.

`CCCCCCCCNc1c(Nc2ccc(CC(C)NC[C@H](O)COc3ccccc3)cc2)c(=O)c1=O` (stereo partly drawn) [Compound 24, 3-{4-[2-((2S)-2-Hydroxy-3-phenoxy-propylamino)-propyl]-phenylamino}-4-octylamino-cyclobut-3-ene-1,2-dione]: the melting point lay within 146 to 155 °C. For the same compound, the concentration for a half-maximal effect (EC50) on human β3-AR (setting [1]) came to 81 nM. The “IA(β3)” value on human β3-AR (setting [2]) is listed as 0.41.

As to `COc1ccc(CCNC2=NS(=O)(=O)N=C2Nc2ccc(CC(C)NC[C@H](O)COc3ccc(O)cc3)cc2)cc1` (stereo partly drawn) [Compound 36, (S)-4-{2-hydroxy-3-[2-(4-{4-[2-(4methoxy-phenyl)-ethylamino]-1 1-dioxo-1H-1.lambda(6).-[1,2,5]thiadiazol-3-ylamino}-phenyl)-1-methyl-ethylamino]-propoxy}-phenol], the melting point fell in the range of 95 to 100 °C. The concentration for a half-maximal effect (EC50) on human β3-AR (setting [1]) was 5 nM. Further, on human β3-AR (setting [2]), the “IA(β3)” value is recorded as 0.91.

As for `CC(Cc1ccc(NC2=NS(=O)(=O)N=C2NCC2(c3ccccc3)CCCC2)cc1)NC[C@H](O)COc1ccc(OCc2ccccc2)cc1` (stereo partly drawn) [Compound 30, (2S)-1-(4-Benzyloxy-phenoxy)-3-[2-(4-{1 ,-dioxo-4-[(1-phenyl-cyclopentylmethyl)-amino]-1H-1(lambda(6))-[1,2,5]thiadiazol-3-ylamino}-phenyl)-1-methyl-ethylamino]-propan-2-ol], the melting point was in the range of 103 to 105 °C. Besides, the half-maximal effective concentration (EC50) on human β3-AR (setting [1]) is 116 nM. Further, the “IA(β3)” value at human β3-AR (setting [2]) was determined as 0.93.

Consider `CC(C)(Cc1ccc(NC2=NS(=O)(=O)N=C2NCC(c2ccccc2)c2ccccc2)cc1)NC[C@H](O)COc1ccc(OCc2ccccc2)cc1` [Compound 28], for which the melting point is 222.5 to 224.5 °C (dec.). Besides, the 50% effective concentration (EC50) on human β3-AR (setting [1]) amounted to 1420 nM. The “IA(β3)” value on human β3-AR (setting [2]) was determined as 0.83.

The compound `CCCCCCCCNC1=NS(=O)(=O)N=C1Nc1ccc(CC(C)NC[C@H](O)COc2cccc3[nH]c4ccccc4c23)cc1` (stereo partly drawn) [Compound 21, (2S)-1-(9H-Carbazol-4-yloxy)-3-{1-methyl-2-[4-(4-octylamino-1,1-dioxo-1H-1(lambda(6))-[1,2,5]thiadiazol-3-ylamino)-phenyl]-ethylamino}-propan-2-ol] had a melting point of 121 to 124 °C. Also, on human β3-AR (setting [1]), the EC50 turned out to be 64 nM. The “IA(β3)” value on human β3-AR (setting [2]) is listed as 0.64.
